Target: T1, Tyrosinase (Mus musculus, UniProt P11344)
T1 sequence (P11344 whole entry): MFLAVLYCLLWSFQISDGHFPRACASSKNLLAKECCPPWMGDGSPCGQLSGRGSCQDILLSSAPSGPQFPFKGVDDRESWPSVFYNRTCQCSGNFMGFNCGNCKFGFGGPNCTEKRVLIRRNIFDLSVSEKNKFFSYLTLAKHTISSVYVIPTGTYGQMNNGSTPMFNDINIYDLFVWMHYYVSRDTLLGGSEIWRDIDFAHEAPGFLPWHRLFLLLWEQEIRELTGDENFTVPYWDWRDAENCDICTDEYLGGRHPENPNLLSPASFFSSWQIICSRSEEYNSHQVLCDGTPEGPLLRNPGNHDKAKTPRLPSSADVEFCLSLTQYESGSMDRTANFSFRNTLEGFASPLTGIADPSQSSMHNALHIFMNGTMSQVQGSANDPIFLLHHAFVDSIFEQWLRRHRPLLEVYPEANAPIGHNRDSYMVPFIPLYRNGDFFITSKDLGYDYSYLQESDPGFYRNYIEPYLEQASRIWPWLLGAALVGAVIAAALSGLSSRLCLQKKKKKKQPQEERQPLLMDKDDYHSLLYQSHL
Test: Tyrosinase Activity
Conditions: pH 6.8
Protocol: The reaction mixture contained 50 mM phosphate buffer, pH 6.8, 0.05% L-DOPA and the supernatant (tyrosinase). After incubation in the absence or presence of various stilbene derivatives (with varying concentrations ranging from 1 µg/mL to 100 µg/mL) at 37 °C for 20 min, dopachrome was monitored by measuring absorbanceat wavelength 492 nm by using a Molecular Devices microplate reader.

Structure (SMILES) | IC50
N#C/C(=C/c1cccnc1)c1ccc(O)cc1 [(E)-2-(4-Hydroxyphenyl)-3-(pyridin-3-yl)acrylonitrile (22)] | 270 µM
CC(=O)Oc1ccc(C=Cc2ccccc2)cc1 [Trans-Acetic acid 4-styryl-phenyl ester (7)] | > 500 µM
COc1ccc(/C=C\c2cc(OC)c(OC)c(OC)c2)cc1 [1,2,3-Trimethoxy-5-[(Z)-2-(4-methoxy-phenyl)-vinyl]-benzene] | > 500 µM
COc1ccc(/C=C(/C=O)c2ccccc2)cc1 [(E)-3-(4-Methoxyphenyl)-2-phenylpropenal (20)] | 276 µM
Fc1cc(F)cc(/C=C\c2ccccc2)c1 [Trans-1,3-Difluoro-5-styrylbenzene (12)] | 394 µM
Brc1ccc(/C=C\c2ccccc2)cc1 [Trans-1-Bromo-4-styrylbenzene (4)] | 277 µM
C(=C\c1ccccc1)/c1ccccc1 [Trans-1,2-Diphenylethene (1)] | > 500 µM
Clc1ccc(/C=C\c2ccccc2)cc1 [Trans-1-Chloro-4-styrylbenzene (3)] | 320 µM
C(=C/c1c2ccccc2cc2ccccc12)/c1ccccc1 [Trans-9-Styryl-anthracene (15)] | 166 µM
Fc1c(F)c(F)c(/C=C\c2ccccc2)c(F)c1F [Trans-1,2,3,4,5-Pentafluoro-6-styryl-benzene (14)] | > 500 µM
COc1ccc(/C=C\c2ccccc2)cc1 [Trans-1-Methoxy-4-styryl-benzene (9)] | 433 µM
COC(=O)/C(=C/c1ccc(O)c(OC)c1)c1ccc(OC)cc1 [(E)-Methyl-3-(4-hydroxy-3-methoxyphenyl)-2-(4-methoxyphenyl)acrylate (19)] | > 500 µM
O=[N+]([O-])c1ccc(/C=C\c2ccccc2)cc1 [Trans-1-Nitro-4-styrylbenzene (5)] | 361 µM

Stronger by IC50, values ahead:

IC50 | Structure (SMILES)
79.4 µM | Fc1ccc(/C=C\c2ccccc2)cc1 [Trans-1-Fluoro-4-styryl-benzene (2)]
56.2 µM | COc1ccc(/C=C\c2ccccc2)cc1Br [Trans-2-Bromo-1-methoxy-4-styryl-benzene (11)]
50 µM | COc1ccc(/C=C\c2ccc(F)cc2)cc1 [Trans-1-fluoro-4-(4-methoxystyryl)benzene (10)]
50 µM | N#Cc1ccc(/C=C\c2ccccc2)cc1 [Trans-4-Styrylbenzonitrile (6)]
17.4 µM | Oc1ccc(/C=C\c2ccccc2)cc1 [Trans-4-Styryl-phenol (8)]
10.8 µM | Oc1ccc(/C=C/c2cc(O)cc(O)c2)cc1 [5-[(E)-2-(4-hydroxyphenyl)ethenyl]benzene-1,3-diol]
5.06 µM | N#C/C(=C/c1ccc(O)cc1)c1ccc(O)cc1 [(E)-2,3-bis(4-Hydroxyphenyl)acrylonitrile (21)]

— BindingDB's records for doi:10.1016/j.bioorg.2016.01.001 (Indian Institute of Integrative Medicine, 2016)
